Data reported in the CheMixHub viscosity set.
± gives the uncertainty stated by the source.

Assay: xn = mol fraction of the nth substance listed

C1COCO1 + CCCCO
viscosity [mPa·s], 101 kPa
Details	298.15 K	303.15 K	313.15 K
x1 = 0.1001	–	1.74 ± 0.023	–
x1 = 0.1022	1.884 ± 0.014	–	1.354 ± 0.013
x1 = 0.1981	1.493 ± 0.013	–	1.109 ± 0.012
x1 = 0.2001	–	1.373 ± 0.022	–
x1 = 0.3001	–	1.113 ± 0.021	–
x1 = 0.3055	1.201 ± 0.012	–	0.9166 ± 0.011
x1 = 0.4001	–	0.9587 ± 0.021	–
x1 = 0.4054	1.014 ± 0.012	–	0.7915 ± 0.011
x1 = 0.5001	–	0.8419 ± 0.021	–
x1 = 0.5008	0.8912 ± 0.012	–	0.7023 ± 0.011
x1 = 0.6001	–	0.7305 ± 0.021	–
x1 = 0.6035	0.7757 ± 0.011	–	0.6292 ± 0.011
x1 = 0.7001	–	0.6582 ± 0.02	–
x1 = 0.7024	0.6998 ± 0.011	–	0.5763 ± 0.011
x1 = 0.8001	–	0.6192 ± 0.02	–
x1 = 0.8009	0.6441 ± 0.011	–	0.5372 ± 0.011
x1 = 0.9001	–	0.5873 ± 0.02	–
x1 = 0.9002	0.6073 ± 0.011	–	0.5116 ± 0.011

NC(=O)c1ccccc1O + O
viscosity [mPa·s], 100 kPa
Details	x1 = 7.39e-05	x1 = 0.000108	x1 = 0.000143	x1 = 0.00018	x1 = 0.0002156	x1 = 0.0002516
293.15 K	1.008 ± 0.06	1.011 ± 0.06	1.013 ± 0.06	1.015 ± 0.06	1.016 ± 0.06	1.017 ± 0.06
298.15 K	0.896 ± 0.06	0.899 ± 0.06	0.901 ± 0.06	0.902 ± 0.06	0.903 ± 0.06	0.904 ± 0.06
303.15 K	0.803 ± 0.06	0.805 ± 0.06	0.807 ± 0.06	0.808 ± 0.06	0.81 ± 0.06	0.811 ± 0.06
308.15 K	0.725 ± 0.06	0.727 ± 0.06	0.728 ± 0.06	0.73 ± 0.06	0.731 ± 0.06	0.732 ± 0.06
313.15 K	0.659 ± 0.06	0.661 ± 0.06	0.662 ± 0.06	0.663 ± 0.06	0.664 ± 0.06	0.665 ± 0.06

C=CCN(CC=C)C(=O)C(Cl)Cl + CC(C)=O
viscosity [mPa·s], 101 kPa
Details	x1 = 0.006314	x1 = 0.01189	x1 = 0.01711	x1 = 0.02832	x1 = 0.03651	x1 = 0.04464	x1 = 0.05006	x1 = 0.05495
293.15 K	0.3429 ± 0.0077	0.3501 ± 0.0077	0.3617 ± 0.0078	0.3719 ± 0.0079	0.3878 ± 0.008	0.3997 ± 0.0081	0.4079 ± 0.0081	0.4157 ± 0.0082
298.15 K	0.3335 ± 0.0076	0.3358 ± 0.0077	0.3476 ± 0.0077	0.3589 ± 0.0078	0.3712 ± 0.0079	0.3822 ± 0.008	0.3905 ± 0.008	0.3989 ± 0.0081
303.15 K	0.3189 ± 0.0075	0.3227 ± 0.0076	0.3309 ± 0.0076	0.3424 ± 0.0077	0.3542 ± 0.0078	0.3646 ± 0.0078	0.3722 ± 0.0079	0.3793 ± 0.0079
308.15 K	0.3041 ± 0.0075	0.3086 ± 0.0075	0.3185 ± 0.0075	0.3268 ± 0.0076	0.3372 ± 0.0077	0.3478 ± 0.0077	0.3553 ± 0.0078	0.3628 ± 0.0078
313.15 K	0.2944 ± 0.0074	0.296 ± 0.0074	0.3075 ± 0.0075	0.3129 ± 0.0075	0.3247 ± 0.0076	0.3335 ± 0.0076	0.3423 ± 0.0077	0.3443 ± 0.0077

Cn1cc[n+](CC(O)CNCCN(CCNCC(O)C[n+]2ccn(C)c2)CC(O)C[n+]2ccn(C)c2)c1.[Cl-].[Cl-].[Cl-] (stereo not given) + O
101.33 kPa, x2 = 0.49
Details	viscosity [mPa·s]
298.15 K	1956 ± 110
308.15 K	779.1 ± 36
318.15 K	370.5 ± 15

FCC(F)(F)F + OCCO
viscosity [mPa·s], 101.32 kPa
Details	x2 = 0.948	x2 = 0.949	x2 = 0.964	x2 = 0.965	x2 = 0.974	x2 = 0.975
293.15 K	16.9 ± 1.2	–	17.1 ± 1.2	–	17.9 ± 1.2	–
313.15 K	–	7.76 ± 0.53	–	7.91 ± 0.54	–	7.86 ± 0.54

CC(C)C[C@H](NC(=O)CN)C(=O)O + O
viscosity [mPa·s], 100 kPa
Details	x1 = 0.000362	x1 = 0.000727	x1 = 0.00109	x1 = 0.00145	x1 = 0.00179	x1 = 0.002245	x1 = 0.002699
293.15 K	1.015 ± 0.12	1.029 ± 0.12	1.042 ± 0.12	1.054 ± 0.12	1.067 ± 0.12	1.083 ± 0.12	1.1 ± 0.12
298.15 K	0.9019 ± 0.12	0.9133 ± 0.12	0.9246 ± 0.12	0.9358 ± 0.12	0.9464 ± 0.12	0.9607 ± 0.12	0.9749 ± 0.12
303.15 K	0.8072 ± 0.12	0.817 ± 0.12	0.8268 ± 0.12	0.8363 ± 0.12	0.8455 ± 0.12	0.8577 ± 0.12	0.8698 ± 0.12
308.15 K	0.7277 ± 0.12	0.7362 ± 0.12	0.7447 ± 0.12	0.753 ± 0.12	0.761 ± 0.12	0.7717 ± 0.12	0.7823 ± 0.12
313.15 K	0.6605 ± 0.12	0.668 ± 0.12	0.6755 ± 0.12	0.6828 ± 0.12	0.6898 ± 0.12	0.6992 ± 0.12	0.7085 ± 0.12

C1COCO1 + C1CCCCC1
viscosity [mPa·s], 101.3 kPa
Details	x2 = 0.0994	x2 = 0.1978	x2 = 0.3014	x2 = 0.3991	x2 = 0.4961	x2 = 0.5974	x2 = 0.6998	x2 = 0.8012	x2 = 0.8994
298.15 K	0.5886 ± 0.0055	0.593 ± 0.0055	0.6047 ± 0.0056	0.6199 ± 0.0057	0.6405 ± 0.0058	0.6642 ± 0.006	0.6971 ± 0.0063	0.7404 ± 0.0066	0.8026 ± 0.0071
313.15 K	0.4948 ± 0.0048	0.4959 ± 0.0048	0.5024 ± 0.0048	0.5119 ± 0.0049	0.5256 ± 0.005	0.5441 ± 0.0051	0.5653 ± 0.0053	0.5967 ± 0.0055	0.6392 ± 0.0059

[Al+3].[Cl-].[Cl-].[Cl-] + CCCC(N)=O
viscosity [mPa·s], 101 kPa
Details	x1 = 0.5	x1 = 0.52	x1 = 0.57	x1 = 0.6	x1 = 0.63
313 K	28.41 ± 0.64	23.88 ± 0.54	23.18 ± 0.52	24.75 ± 0.56	27.31 ± 0.61
323 K	20.42 ± 0.46	17.69 ± 0.4	17.62 ± 0.39	17.72 ± 0.4	19.85 ± 0.45

C=CCN(CC=C)C(=O)C(Cl)Cl + CCO
viscosity [mPa·s], 101 kPa
Details	x1 = 0.004764	x1 = 0.01126	x1 = 0.01785	x1 = 0.02455	x1 = 0.03127	x1 = 0.03725	x1 = 0.04407
293.15 K	1.208 ± 0.029	1.238 ± 0.03	1.258 ± 0.03	1.284 ± 0.031	1.314 ± 0.032	1.334 ± 0.032	1.372 ± 0.033
298.15 K	1.108 ± 0.027	1.134 ± 0.028	1.162 ± 0.028	1.178 ± 0.029	1.201 ± 0.029	1.215 ± 0.029	1.245 ± 0.03
303.15 K	1.008 ± 0.025	1.025 ± 0.025	1.043 ± 0.026	1.062 ± 0.026	1.08 ± 0.026	1.1 ± 0.027	1.116 ± 0.027
308.15 K	0.9132 ± 0.023	0.9322 ± 0.023	0.9453 ± 0.024	0.9641 ± 0.024	0.9854 ± 0.024	0.9997 ± 0.025	1.02 ± 0.025
313.15 K	0.832 ± 0.021	0.8475 ± 0.021	0.8596 ± 0.022	0.8743 ± 0.022	0.8941 ± 0.022	0.9139 ± 0.023	0.9264 ± 0.023

C1COCO1 + C1CCOC1
298.15 K, 101 kPa
Details	viscosity [mPa·s]
x2 = 0.1025	0.5975 ± 0.0052
x2 = 0.2043	0.5993 ± 0.0052
x2 = 0.3057	0.5923 ± 0.0051
x2 = 0.4065	0.5804 ± 0.005
x2 = 0.5067	0.5634 ± 0.0049
x2 = 0.6065	0.5438 ± 0.0048
x2 = 0.7056	0.5224 ± 0.0046
x2 = 0.8043	0.501 ± 0.0044
x2 = 0.9024	0.4802 ± 0.0043

CC(=O)c1ccccc1 + CCCC(C)O
298.15 K, 101 kPa
Details	viscosity [mPa·s]
x1 = 0.2502	1.875 ± 0.014
x1 = 0.7547	1.605 ± 0.012
